Test results from BindingDB's records for doi:10.1021/bi401043w (Mayo Clinic, 2013).
pKi: −log10 of the molar value.

Assays:
Acetylcholinesterase [1] = target: Acetylcholinesterase (Homo sapiens, UniProt P22303); assay: Assay of Substrate Hydrolysis; conditions: pH 7; 25 °C
Experimental: (§1) Assays were conducted at 25 C in 20 mM sodium phosphate buffer (pH 7.0) and 0.01% bovine serum albumin unless otherwise noted. AChE concentrations were varied to optimize measured rates.

Acetylcholinesterase [2] = target: T1, Acetylcholinesterase (Mus musculus, UniProt P21836); assay: Assay of Substrate Hydrolysis; conditions: pH 7; 25 °C
T1 sequence (P21836 whole entry): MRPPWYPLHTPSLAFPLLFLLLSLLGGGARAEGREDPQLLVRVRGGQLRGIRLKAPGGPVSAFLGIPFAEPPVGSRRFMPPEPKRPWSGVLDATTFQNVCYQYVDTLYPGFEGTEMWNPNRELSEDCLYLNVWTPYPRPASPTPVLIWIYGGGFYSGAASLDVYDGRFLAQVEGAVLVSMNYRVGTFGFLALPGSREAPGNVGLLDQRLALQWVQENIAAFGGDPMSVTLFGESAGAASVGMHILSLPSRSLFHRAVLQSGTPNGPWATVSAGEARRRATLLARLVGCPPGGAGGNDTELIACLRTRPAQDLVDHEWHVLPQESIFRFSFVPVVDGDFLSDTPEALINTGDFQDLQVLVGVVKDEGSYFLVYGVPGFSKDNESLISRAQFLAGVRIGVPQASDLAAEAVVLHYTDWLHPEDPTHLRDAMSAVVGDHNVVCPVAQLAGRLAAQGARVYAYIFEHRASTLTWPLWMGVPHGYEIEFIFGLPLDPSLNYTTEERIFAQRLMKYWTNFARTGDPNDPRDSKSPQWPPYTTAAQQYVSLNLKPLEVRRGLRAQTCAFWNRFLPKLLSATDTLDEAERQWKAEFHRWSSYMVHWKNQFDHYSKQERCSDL
Experimental: as §1

Acetylcholinesterase (Homo sapiens, UniProt P22303), sequence (P22303 whole entry): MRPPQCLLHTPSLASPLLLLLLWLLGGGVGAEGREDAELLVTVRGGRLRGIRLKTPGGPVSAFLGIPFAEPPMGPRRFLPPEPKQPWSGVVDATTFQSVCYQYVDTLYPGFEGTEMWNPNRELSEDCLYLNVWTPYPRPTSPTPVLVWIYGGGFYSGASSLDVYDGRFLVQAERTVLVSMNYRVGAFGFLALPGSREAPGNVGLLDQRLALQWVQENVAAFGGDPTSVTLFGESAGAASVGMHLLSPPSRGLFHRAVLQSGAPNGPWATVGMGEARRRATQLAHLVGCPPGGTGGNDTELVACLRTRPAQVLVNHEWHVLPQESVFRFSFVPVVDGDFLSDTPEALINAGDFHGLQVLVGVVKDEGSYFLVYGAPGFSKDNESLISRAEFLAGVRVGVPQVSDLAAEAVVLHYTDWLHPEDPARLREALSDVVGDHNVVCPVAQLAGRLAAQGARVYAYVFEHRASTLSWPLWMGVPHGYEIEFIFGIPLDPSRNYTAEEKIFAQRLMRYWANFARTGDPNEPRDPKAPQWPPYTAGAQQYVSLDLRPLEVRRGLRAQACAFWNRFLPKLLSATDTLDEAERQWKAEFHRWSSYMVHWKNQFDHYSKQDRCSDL

| Compound | pKi (Acetylcholinesterase [1]) | pKi (Acetylcholinesterase [2]) |
| --- | --- | --- |
| COc1cc(-c2cc3c(c(=O)o2)C[C@]2(O)[C@@]4(C)C(=O)C=CC(C)(C)[C@]4(O)CC[C@@]2(C)O3)cc(OC)c1OC | 8.77 |  |
| CCC1=C[C@@H]2Cc3nc4cc(Cl)ccc4c(N)c3[C@H](C1)C2 (racemic) [(1S)-7-chloro-15-ethyl-10-azatetracyclo[11.3.1.0^{2,11}.0^{4,9}]heptadeca-2(11),3,5,7,9,14-hexaen-3-amine] | 10.59 |  |
| O=c1ccc2ccccc2o1 [2H-chromen-2-one] |  | 5.03 |
| C/C=C1\C2C=C(C)CC1(N)c1ccc(=O)[nH]c1C2 (stereo not drawn) [(+)-Huperzine A] | 8.34 |  |
| COc1cc2c(c3oc(=O)c4c(c13)CCC4=O)[C@@H]1C=CO[C@@H]1O2 [Aflatoxin B1] | 4.55 |  |
| Cc1cccc2c3c(ccc12)C1=C(C(=O)C3=O)[C@@H](C)CO1 [Dihydrotanshinone I] | 6.12 |  |
| CC[N+](C)(C)c1cccc(O)c1 [Edrophonium Chloride, 3] |  | 6.60 |
| C[n+]1c2ccccc2cc2ccccc21 [N-methylacridinium] |  | 6.51 |
| Cc1ccc2c(c1)sc(-c1ccc(N(C)C)cc1)[n+]2C [Thioflavin T, 1] | 6.00 |  |
